For 3 molecules, inhibition results are on record in EP4692083A1, “NOVEL AZABICYCLE DERIVATIVES AND PHARMACEUTICAL COMPOSITION FOR INHIBITING AUTOTAXIN, COMPRISING SAME” (Nextgen Bioscience Co., Ltd., priority 2023, dated 2024).

The assay addresses human Autotaxin protein (Homo sapiens, UniProt Q13822). The experiment in a line: Evaluation of the inhibitory activity against human Autotaxin protein (18:1 LysoPC substrate, choline assay kit, absorbance at 570 nm). Format: biochemical. The following applies: at 500nM compound, 2 hours at 37 °C, read-out: Inhibition rate (%, at 500nM). Here is the method: Solutions of each synthesized compound (80 uM, 100% dimethyl sulfoxide) were sequentially diluted 5-fold with dimethyl sulfoxide to prepare 6 concentrations. Each concentration of the compound was diluted 2-fold with 1x test buffer (50 mM Tris-Cl (pH 8.0), 5 mM KCl, 1 mM CaCl2, 1 mM MgCl2, 140 mM NaCl, deionized water, 1 mg/mL BSA), and 1 uL (1.25% dimethylsulfoxide) of the diluted mixture was dispensed into each well of a 96-well clear round-bottom plate. 9 uL of 1x test buffer was added, and 20 uL of 240 nM human autotaxin protein (buffer: 50 mM Tris-HCl, pH 8.0, with 150 mM sodium chloride and 20% glycerol) was added. 10 uL of sonicated 360 uM 18:1 LysoPC (diluted with 1x assay buffer) was added. The reaction was performed for 2 hours in a shaking incubator at 37 °C, and a secondary reaction mixture (choline assay kit, KA1662) (65 uL of 1x assay buffer: 1 uL of choline oxidase: 1 uL of dye probe) was prepared. 60 uL of the secondary reaction mixture was added to the plate where the reaction was performed, and incubated for 30 minutes in a shaker. The absorbance value was measured at a wavelength of 570 nm using a SpectraMax iD3 microplate reader. The percentage inhibition activity value (% inhibition) was calculated by the formula: (1 - absorbance value test group / absorbance value control group) X 100.
Regarding `Brc1cc(Br)cc(CNc2ncc(-c3nnc(N4C[C@@H]5[C@H](C4)[C@H]5c4cnn[nH]4)o3)cn2)c1` [Example 8, 5-(5-((1R,5S,6r)-6-(1H-1,2,3-Triazol-5-yl)-3-azabicyclo[3.1.0]hexan-3-yl)-1,3,4-oxadiazol-2-yl)-N-(3,5-dibromobenzyl)pyrimidin-2-amine], the inhibition at 0.5 µM worked out at 97.3%.

Regarding `O=C(O)C[C@@H]1[C@H]2CN(c3nnc(-c4cnc(NCCc5ccc(Cl)cc5)nc4)o3)C[C@@H]12` [Example 51, 2-((1R,5S,6s)-3-(5-(2-((4-Chlorophenethyl)amino)pyrimidin-5-yl)-1,3,4-oxadiazol-2-yl)-3-azabicyclo[3.1.0]hexan-6-yl)acetic acid], the inhibition at 0.5 µM was found to be 3.5%. With `O=C(CCc1cnc(NC2Cc3ccccc3C2)nc1)N1C[C@@H]2[C@H](C1)[C@H]2c1cnn[nH]1` [Example 19, 1-((1R,5S,6r)-6-(1H-1,2,3-Triazol-5-yl)-3-azabicyclo[3.1.0]hexan-3-yl)-3-(2-((2,3-dihydro-1H-inden-2-yl)amino)pyrimidin-5-yl)propan-1-one] the figure was 91.9%.
